Assay results from PubChem BioAssay AID248 (DTP/NCI, 2004).
Several values for one entry are separate records, joined by “and”; a condition that tells them apart may be missing. Identical values can stand only once. Toxic doses and inconclusive results are not listed. Cut-off read from the data, not from the text of the source: active = T/C of 150% or more; inactive = T/C below 125%.

System: L1210 leukemia ip in BDF1 mice, survival T/C
Test: NCI In Vivo Anticancer Drug Screen. Data for tumor model L1210 Leukemia (intraperitoneal) in B6D2F1 (BDF1) mice
Settings: endpoint: mean survival time, higher = longer survival
Outline: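 Ratio derived from survival: compound-dosed mice over vehicle-dosed mice, all bearing a transplantable tumor.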

[1] = dose: 100.0 mg/kg/injection, schedule: Q01DX009 (ip), vehicle: Klucel (hydroxypropylcellulose) (HPC)
[2] = dose: 100.0 mg/kg/injection, schedule: Q04DX003 (ip), vehicle: Klucel (hydroxypropylcellulose) (HPC)
[3] = dose: 200.0 mg/kg/injection, schedule: Q01DX009 (ip), vehicle: Klucel (hydroxypropylcellulose) (HPC)
[4] = dose: 200.0 mg/kg/injection, schedule: Q04DX003 (ip), vehicle: Klucel (hydroxypropylcellulose) (HPC)
[5] = dose: 400.0 mg/kg/injection, schedule: Q04DX003 (ip), vehicle: Klucel (hydroxypropylcellulose) (HPC)
[6] = dose: 100.0 mg/kg/injection, schedule: Q04DX002 (ip), vehicle: Klucel (hydroxypropylcellulose) (HPC)
[7] = dose: 200.0 mg/kg/injection, schedule: Q04DX002 (ip), vehicle: Klucel (hydroxypropylcellulose) (HPC)
[8] = dose: 400.0 mg/kg/injection, schedule: Q04DX002 (ip), vehicle: Klucel (hydroxypropylcellulose) (HPC)
[9] = dose: 100.0 mg/kg/injection, schedule: Q04DX003 (ip), vehicle: saline with Tween-80
[10] = dose: 200.0 mg/kg/injection, schedule: Q04DX003 (ip), vehicle: saline with Tween-80
[11] = dose: 400.0 mg/kg/injection, schedule: Q04DX003 (ip), vehicle: saline with Tween-80
[12] = dose: 400.0 mg/kg/injection, schedule: Q01DX009 (ip), vehicle: Klucel (hydroxypropylcellulose) (HPC)
[13] = dose: 100.0 mg/kg/injection, schedule: Q01DX001 (ip), vehicle: saline
[14] = dose: 200.0 mg/kg/injection, schedule: Q01DX001 (ip), vehicle: saline
[15] = dose: 400.0 mg/kg/injection, schedule: Q01DX001 (ip), vehicle: saline

Measured: T/C

N=C1C(=O)c2ccccc2-c2ccccc21
inactive: dose: 100.0 mg/kg/injection, schedule: Q01DX001 (ip), vehicle: Klucel (hydroxypropylcellulose) (HPC) 97 % of control | dose: 200.0 mg/kg/injection, schedule: Q01DX001 (ip), vehicle: Klucel (hydroxypropylcellulose) (HPC) 98 % of control | dose: 400.0 mg/kg/injection, schedule: Q01DX001 (ip), vehicle: Klucel (hydroxypropylcellulose) (HPC) 98 % of control

O=C(Nc1ccccn1)Nc1ccccn1
inactive: [1] 104 % of control | [2] 98 % of control | [3] 104 % of control | [4] 87 % of control | [5] 106 % of control

Cc1c(Cl)cccc1NC(=O)C1CC(Br)C(Br)CC1C(=O)O (stereo not given)
inactive: [6] 95 % of control | [7] 103 % of control | [8] 95 % of control

Oc1cccc(C(c2ccccc2)C2CCCCC2)c1 (stereo not given)
inactive: dose: 100.0 mg/kg/injection, schedule: Q01DX001 (ip), vehicle: saline with Tween-80 98 % of control | dose: 200.0 mg/kg/injection, schedule: Q01DX001 (ip), vehicle: saline with Tween-80 88 % of control | dose: 400.0 mg/kg/injection, schedule: Q01DX001 (ip), vehicle: saline with Tween-80 98 % of control

CCCCOC(c1ccc2c(c1)OCO2)C(C)Br (stereo not given)
inactive: [9] 94 % of control | [10] 94 % of control | [11] 97 % of control

c1ccc(NC2C(=C(c3ccccc3)c3ccccc3)N3CCC2CC3)cc1 (stereo not given)
inactive: [2] 95 % of control | [4] 94 % of control | [5] 95 % of control

CN(Cc1ccc(Cl)cc1)C(=O)NCCCCCCNC(=O)N(C)Cc1ccc(Cl)cc1
inactive: [1] 100 % of control | [3] 94 % of control | [12] 92 % of control

CCn1c2ccccc2c2cc(NC(C)=O)ccc21
inactive: [9] 103 % of control | [10] 98 % of control | [11] 101 % of control

CC(C)c1ccc(N2CSC(=S)N(c3ccc(C(C)C)cc3)C2)cc1
inactive: dose: 100.0 mg/kg/injection, schedule: Q04DX002 (sc), vehicle: olive oil, sesame oil, peanut oil 104 % of control | dose: 200.0 mg/kg/injection, schedule: Q04DX002 (sc), vehicle: olive oil, sesame oil, peanut oil 107 % of control | dose: 400.0 mg/kg/injection, schedule: Q04DX002 (sc), vehicle: olive oil, sesame oil, peanut oil 101 % of control

CCCCCCCCCCCC(=O)NC(=S)Nc1ccc(N(C)C)cc1
inactive: [6] 93 % of control | [7] 108 % of control | [8] 90 % of control

O=Cc1ccc(OC(=O)Nc2ccccc2)cc1
inactive: dose: 100.0 mg/kg/injection, schedule: Q01DX009 (ip), vehicle: saline with Tween-80 92 % of control | [9] 105 % of control | dose: 200.0 mg/kg/injection, schedule: Q01DX009 (ip), vehicle: saline with Tween-80 87 % of control | [10] 94 % of control | [11] 93 % of control

COC(=O)[CH](C[N+](=O)[O-])[Hg][Cl] (stereo not given)
inactive: dose: 3.12 mg/kg/injection, schedule: Q01DX009 (ip), vehicle: saline 94 % of control | dose: 6.25 mg/kg/injection, schedule: Q01DX009 (ip), vehicle: saline 94 % of control

CCCCOP(=O)(CSCC)OCCCC
inactive: [1] 98 % of control | [3] 90 % of control | [12] 93 % of control

CCOC(=O)c1c(/N=C/c2cc(Br)cc(Br)c2O)sc2c1CCCC2
inactive: dose: 100.0 mg/kg/injection, schedule: Q04DX002 (ip), vehicle: saline with Tween-80 91 % of control | dose: 200.0 mg/kg/injection, schedule: Q04DX002 (ip), vehicle: saline with Tween-80 102 % of control | dose: 400.0 mg/kg/injection, schedule: Q04DX002 (ip), vehicle: saline with Tween-80 105 % of control

COc1cccc(NC(=O)Oc2ccc(Cl)cc2Cl)c1
inactive: [6] 88 % of control | [7] 88 % of control

O=C1Nc2ccc(Cl)cc2C(c2ccccc2)=NC1O (stereo not given)
inactive: dose: 25.0 mg/kg/injection, schedule: Q01DX009 (ip), vehicle: Klucel (hydroxypropylcellulose) (HPC) 103 % of control | dose: 25.0 mg/kg/injection, schedule: Q04DX003 (ip), vehicle: Klucel (hydroxypropylcellulose) (HPC) 98 % of control | dose: 50.0 mg/kg/injection, schedule: Q01DX009 (ip), vehicle: Klucel (hydroxypropylcellulose) (HPC) 101 % of control | dose: 50.0 mg/kg/injection, schedule: Q04DX003 (ip), vehicle: Klucel (hydroxypropylcellulose) (HPC) 104 % of control | [1] 98 % of control | [2] 104 % of control | [3] 107 % of control | [4] 114 % of control | [12] 91 % of control | [5] 111 % of control

O=S(=O)(O)C(O)c1ccccc1 (stereo not given)
inactive: dose: 100.0 mg/kg/injection, schedule: Q04DX002 (ip), vehicle: saline 97 % of control | dose: 200.0 mg/kg/injection, schedule: Q04DX002 (ip), vehicle: saline 100 % of control | dose: 400.0 mg/kg/injection, schedule: Q04DX002 (ip), vehicle: saline 103 % of control

C[NH-].C[NH-].C[NH-].[Cl][Rh]([Cl])[Cl]
inactive: dose: 25.0 mg/kg/injection, schedule: Q04DX003 (ip), vehicle: saline 96 % of control | dose: 50.0 mg/kg/injection, schedule: Q04DX003 (ip), vehicle: saline 96 % of control | dose: 100.0 mg/kg/injection, schedule: Q04DX003 (ip), vehicle: saline 96 % of control

O=S1c2ccccc2S(=O)c2ccccc21 (stereo not given)
inactive: [9] 96 % of control | [10] 91 % of control | [11] 89 % of control

OCC(O)C(O)C(O)C(c1ccc(Cl)cc1)c1ccc(Cl)cc1 (stereo not given)
inactive: dose: 50.0 mg/kg/injection, schedule: Q01DX001 (ip), vehicle: saline 104 % of control and 103 % of control and 101 % of control | [13] 102 % of control and 103 % of control and 97 % of control | [14] 98 % of control and 101 % of control and 97 % of control | [15] 96 % of control and 91 % of control and 101 % of control

Oc1cccc2ccc(Cl)nc12
inactive: dose: 75.0 mg/kg/injection, schedule: Q01DX001 (ip), vehicle: carboxymethylcellulose (CMC) 97 % of control | dose: 150.0 mg/kg/injection, schedule: Q01DX001 (ip), vehicle: carboxymethylcellulose (CMC) 101 % of control | dose: 300.0 mg/kg/injection, schedule: Q01DX001 (ip), vehicle: carboxymethylcellulose (CMC) 97 % of control

Cc1ccc(NC(=O)C(c2ccccc2)c2ccccc2)cc1Cl
inactive: [1] 108 % of control | [2] 88 % of control | [3] 95 % of control | [4] 91 % of control | [12] 108 % of control | [5] 101 % of control

Cc1ccc(N2CCCC(=O)C(O)CCC2)cc1 (stereo not given)
inactive: [13] 98 % of control | dose: 100.0 mg/kg/injection, schedule: Q01DX009 (ip), vehicle: saline 100 % of control | [14] 90 % of control | dose: 200.0 mg/kg/injection, schedule: Q01DX009 (ip), vehicle: saline 96 % of control | dose: 300.0 mg/kg/injection, schedule: Q01DX009 (ip), vehicle: saline 116 % of control | [15] 90 % of control
